Earlier results in patent US11793840B2, “Nano-armored single cell product for treating Parkinson's disease through bacteria and a preparation method thereof” (Tangyi Holdings(Shenzhen) Limited, priority 2021, dated 2023).

In the case of `NCCCC(=O)O` [GABA, Gamma-aminobutyric acid], the “in-vivo terminal elimination half-life” value (in vivo) is listed as 25.1 min and the oral bioavailability (oral administration of GABA) is listed as 9.81%.
